From PMC9189845, “Structure–Activity Relationships of 8-Hydroxyquinoline-Derived Mannich Bases with Tertiary Amines Targeting Multidrug-Resistant Cancer” (Journal of Medicinal Chemistry, 2022)
Counter-ions that a name gives are not always drawn. Like-named read-outs stand apart in the source and are kept apart here.

Experiments:
[1] = cited from earlier work
MES-SA cells = test: PrestoBlue viability assay, MES-SA cells
A431-B1 cells = test: PrestoBlue viability assay, A431-B1 (A431-ABCB1) cells
A431 cells = test: PrestoBlue viability assay, A431 cells
MES-SA/Dx5 cells = test: PrestoBlue viability assay, MES-SA/Dx5 cells (MDR, P-gp positive); conditions: for SR_TQ: selectivity ratio MES-SA vs MES-SA/Dx5, with TQ; for SR: selectivity ratio MES-SA vs MES-SA/Dx5, without TQ; for SR (MES-SA_TQ / Dx5_TQ) (values in parentheses): presence of 1 μM TQ
[2] = UV-visible spectrophotometric titrations (pKa); format: physicochemical; conditions: water with 0.2% (v/v) DMSO, 25 °C
Protocol: Spectrophotometrical determination of pKa values was performed as previously reported.[20],[50] An Agilent Cary 8454 diode array spectrophotometer was used to record the UV–visible spectra in the interval 200–800 nm. The path length was between 1 and 5 cm. The spectrophotometric titrations were performed in water with 0.2% (v/v) DMSO on samples containing the compounds at 2–50 μM in the pH range from 2 to 11.5 at 25.0 ± 0.1 °C at an ionic strength of 0.10 M (KCl). Proton dissociation constants and the individual spectra of the species in the different protonation states were calculated with the computer program PSEQUAD.[62]

[3] = Homo sapiens, MES-SA, 72 h, read-out: IC50 / μM MES-SA, absence of TQ, 72 h incubation
[4] = Homo sapiens, MES-SA, read-out: IC50 / μM MES-SA (values in parentheses), presence of 1 μM P-gp inhibitor tariquidar (TQ)
[5] = Homo sapiens, MES-SA, read-out: pIC50 value MES-SA+TQ, MES-SA cells, with TQ (converted)
[6] = Homo sapiens, MES-SA, read-out: pIC50 value MES-SA, MES-SA cells, without TQ (converted)
[7] = read-out: IC50 / μM MES-SA, absence of TQ, 72 h incubation
[8] = 72 h, read-out: IC50 / µM A431-B1, 72 h incubation
[9] = read-out: pIC50 A431-B1, SARM figure (converted)
[10] = Homo sapiens, A-431, 72 h, read-out: IC50 / µM A431, 72 h incubation
[11] = Homo sapiens, A-431, read-out: pIC50 A431, SARM figure (converted)
[12] = Homo sapiens, MES-SA/Dx5, 72 h, read-out: IC50 / μM MES-SA/Dx5, absence of TQ, 72 h incubation
[13] = Homo sapiens, MES-SA/Dx5, read-out: IC50 / μM MES-SA/Dx5 (values in parentheses), presence of 1 μM P-gp inhibitor tariquidar (TQ)
[14] = Homo sapiens, MES-SA/Dx5, read-out: pIC50 value MES-SA/Dx5, MES-SA/Dx5 cells, without TQ (converted)
[15] = read-out: IC50 / μM MES-SA/Dx5 (values in parentheses), presence of 1 μM P-gp inhibitor tariquidar (TQ)
[16] = read-out: IC50 / μM MES-SA/Dx5, absence of TQ, 72 h incubation
[17] = 0.2% DMSO, I = 0.10 M KCl, read-out: pKa (OH), experimentally determined
[18] = piperidinium / pyrrolidinium / morpholinium N, read-out: pKa (other; N+amH alkylamine nitrogen), experimentally determined
[19] = quinolinium nitrogen, I = 0.10 M KCl, read-out: pKa (NquinH+), experimentally determined
[20] = Homo sapiens, MES-SA/Dx5, read-out: pIC50 value MES-SA/Dx5 + TQ, MES-SA/Dx5 cells, with TQ (converted)
[21] = fraction of IC50 in P-gp negative vs positive cells

| SMILES | melting point [°C] | IC50 (A431-B1 cells; [8]) [µM] | IC50 (A431-B1 cells; [9]) [µM] | IC50 (A431 cells; [10]) [µM] | IC50 (A431 cells; [11]) [µM] | pKa [2, 17] | pKa [2, 19] | IC50 (MES-SA cells; [3]) [µM] | IC50 (MES-SA cells; [4]) [µM] | IC50 (MES-SA cells; [5]) [µM] | IC50 (MES-SA cells; [6]) [µM] | IC50 (MES-SA/Dx5 cells; [12]) [µM] | IC50 (MES-SA/Dx5 cells; [13]) [µM] | IC50 (MES-SA/Dx5 cells; [14]) [µM] | SR_TQ (MES-SA/Dx5 cells) | SR (MES-SA/Dx5 cells) | IC50 (MES-SA/Dx5 cells; [20]) [µM] | other results |
| --- | --- | --- | --- | --- | --- | --- | --- | --- | --- | --- | --- | --- | --- | --- | --- | --- | --- | --- |
| Oc1cc2c(cc1O)CN(Cc1ccc3cccnc3c1O)CC2 (as salt: hydrochloride) [Compound 82, 2-((8-Hydroxy-quinolin-7-yl)methyl)-1,2,3,4-tetrahydroisoquinoline-6,7-diol Hydrochloride] | 203 to 206 | – | – | – | – | – | – | – | – | – | – | – | – | – | – | – | – | – |
| Oc1c(CN2CCCCC2)ccc2cccnc12 [Compound 3] | – | 1.62 ± 0.92 | 2.4 | 7.3 ± 0.98 | 9.77 | – | – | 5.21 ± 0.95 | 4.18 | 4.07 | 5.13 | 0.85 ± 0.18 | 2.69 | 0.832 | 1.56 | 6.13 | – | pKa (other; N+amH), experimental ([1]; water, 25 °C, ref 50 (Pape et al., Dalton Trans. 2018)): > 11; IC50 (MES-SA cells; read-out: IC50 / μM MES-SA (values in parentheses), presence of 1 μM P-gp inhibitor tariquidar (TQ)): 3.81 µM; IC50 (MES-SA cells; [7]): 5.46 ± 1.01 µM; IC50 (A431-B1 cells; read-out: IC50 / µM A431-B1, 72 h incubation): 2.48 ± 0.7 µM; IC50 (A431 cells; read-out: IC50 / µM A431, 72 h incubation): 10.1 ± 2.95 µM; IC50 (MES-SA/Dx5 cells; [15]): 1.87 µM; IC50 (MES-SA/Dx5 cells; [16]): 0.86 ± 0.19 µM |
| Oc1ccc(Cl)c2cccnc12 [Compound 13, reference compound] | – | – | – | – | – | – | – | 8.26 ± 0.1 | – | – | 8.32 | 5.15 ± 0.48 | – | 5.13 | – | 1.6 | – | pKa (OH), experimental ([1]; ref 59 (Mészáros et al., Dalton Trans. 2020)): 7.6 |
| CN1CCN(Cc2ccc3cccnc3c2O)CC1 [Compound 34, 7-((4-Methylpiperazin-1-yl)methyl)quinolin-8-ol] | 120 to 122 | 11.3 ± 0.95 | 11.2 | 25.5 ± 1.98 | 25.7 | – | – | 16.7 ± 1.86 | 15.5 ± 0.19 | 15.5 | 16.6 | 8.67 ± 1.69 | 14.1 | 8.51 | 1.1 | 1.93 | – | SR (MES-SA_TQ / Dx5_TQ) (values in parentheses) (MES-SA/Dx5 cells; [21]): 1.10 |
| Oc1c(CN2CCc3ccccc3C2)ccc2cccnc12 [Compound 51, 7-((3,4-Dihydroisoquinolin-2(1H)-yl)methyl)quinolin-8-ol] | 155 to 157 | 2.39 ± 0.02 | 2.4 | 4.74 ± 0.04 | 4.79 | 6.24 ± 0.03 | 3.07 ± 0.03 | 3.16 ± 0.41 | 2.97 ± 0.31 | 2.95 | 3.16 | 1.04 ± 0.1 | 2.16 ± 0.31 | 1.05 | 1.37 | 3.03 | 2.14 | pKa [2, 18]: 10.68 ± 0.03; IC50 (MES-SA/Dx5 cells; [15]): 1.73 µM |
| CN1CCN(Cc2ccc3ccccc3c2O)CC1 [Compound 70, 2-((4-Methylpiperazin-1-yl)methyl)naphthalen-1-ol] | 79 to 81 | – | – | – | – | – | – | > 100 | – | – | – | > 100 | – | – | – | – | – | – |
| CN1CCN(Cc2cnc3ccccc3c2O)CC1 [Compound 71, 3-((4-Methylpiperazin-1-yl)methyl)quinolin-4-ol] | 164 to 166 | – | – | – | – | – | – | 94.9 ± 2.02 | – | – | 95.5 | 91 | – | 91.2 | – | 1.04 | – | – |

Second part, led by results:

| melting point [°C] | IC50 (A431-B1 cells; [8]) [µM] | IC50 (A431-B1 cells; [9]) [µM] | IC50 (A431 cells; [10]) [µM] | IC50 (A431 cells; [11]) [µM] | pKa [2, 17] | pKa [2, 19] | SMILES | IC50 (MES-SA cells; [3]) [µM] | IC50 (MES-SA cells; [4]) [µM] | IC50 (MES-SA cells; [5]) [µM] | IC50 (MES-SA cells; [6]) [µM] | IC50 (MES-SA/Dx5 cells; [12]) [µM] | IC50 (MES-SA/Dx5 cells; [13]) [µM] | IC50 (MES-SA/Dx5 cells; [14]) [µM] | SR_TQ (MES-SA/Dx5 cells) | SR (MES-SA/Dx5 cells) | IC50 (MES-SA/Dx5 cells; [20]) [µM] | other results |
| --- | --- | --- | --- | --- | --- | --- | --- | --- | --- | --- | --- | --- | --- | --- | --- | --- | --- | --- |
| 119 to 121 | 1.54 ± 0.51 | 1.45 | 4.32 ± 0.39 | 4.27 | – | – | Oc1c(CN2CCCC2)cc(Br)c2cccnc12 [Compound 16, 5-Bromo-7-(pyrrolidin-1-ylmethyl)quinolin-8-ol] | 3.9 ± 0.87 | 4.58 ± 1.05 | 4.47 | 3.8 | 0.41 ± 0.14 | 3.14 ± 0.89 | 0.389 | 1.46 | 9.45 | – | – |
| – | 1.69 ± 0.27 | 1.66 | 6.67 ± 1.69 | 6.46 | 5.8 ± 0.03 | < 2 | Oc1c(CN2CCCCC2)cc(Cl)c2cccnc12 [Compound 19] | 2.49 ± 0.39 | 3.38 | 3.39 | 2.45 | 0.29 ± 0.05 | 2.58 | 0.282 | 1.31 | 8.71 | 2.57 | IC50 (MES-SA cells; Homo sapiens, MES-SA, read-out: pIC50 MES-SA, absence of TQ (converted), SARM figure): 2.24 µM; pKa [2, 18]: > 11 |
| – | 2.16 ± 0.35 | 1.58 | 6.91 ± 1.37 | 6.76 | 7.16 ± 0.03 | 1.8 ± 0.1 | Oc1c(CN2CCCCC2)cc(Br)c2cccnc12 [Compound 20, 5-Bromo-7-(piperidin-1-ylmethyl)quinolin-8-ol] | 1.79 ± 0.16 | 1.71 | 1.7 | 1.78 | 0.17 ± 0.02 | 1.32 ± 0.08 | 0.166 | 1.29 | 10.67 | 1.32 | IC50 (MES-SA cells; [7]): 1.78 ± 0.17 µM; pKa [2, 18]: > 11; IC50 (MES-SA/Dx5 cells; [15]): 1.33 µM; IC50 (MES-SA/Dx5 cells; [16]): 0.16 ± 0.02 µM |
| – | 1.91 ± 0.18 | 1.91 | 7.53 ± 1 | 7.41 | 7.66 ± 0.03 | 2.43 ± 0.03 | CC(C)OCc1cc(CN2CCCCC2)c(O)c2ncccc12 [Compound 24] | 6.03 ± 0.29 | 5.76 ± 0.15 | 5.75 | 6.03 | 0.48 ± 0.04 | 4.37 ± 0.24 | 0.479 | 1.32 | 12.57 | 4.37 | pKa [2, 18]: > 11 |
| – | 2.42 ± 0.29 | 2.4 | 6.6 ± 3.57 | 5.75 | – | – | Oc1c(CN2CCOCC2)cc(Cl)c2cccnc12 [Compound 29] | 1.52 ± 0.07 | 1.66 ± 0.02 | 1.66 | 1.51 | 0.82 ± 0.06 | 1.17 ± 0.01 | 0.813 | 1.41 | 1.86 | – | pKa (NquinH+), experimental ([1]; water, 25 °C, ref 15 (Pape et al., Cancers 2021)): < 2 |
| – | 6.31 ± 2.64 | 5.75 | 7.38 ± 1.23 | 7.24 | 6.21 ± 0.03 | 1.7 ± 0.1 | Oc1c(CN2CCN(c3ccccc3)CC2)cc(Cl)c2cccnc12 [Compound 38] | 3.42 ± 1.17 | 3.57 ± 1.18 | 3.39 | 3.24 | 0.59 ± 0.26 | 1.87 ± 0.75 | 0.537 | 1.91 | 5.84 | 1.74 | pKa ([2]; read-out: pKa (NpiperaziniumH+ closer to quinoline ring), experimentally determined): 10.1 ± 0.03 |
| 156 to 159 | – | – | – | – | – | – | Oc1c(CN2CCc3ccccc3C2)cc(Br)c2cccnc12 [Compound 81, 5-Bromo-7-((3,4-dihydroisoquinolin-2(1H)-yl)methyl)quinolin-8-ol] | 2.23 ± 0.15 | 2.45 | 1.78 | 2.29 | 0.34 ± 0.05 | 1.48 | 0.363 | 1.82 | 6.23 | – | SR (MES-SA / MES-SA/Dx5) (MES-SA/Dx5 cells; fraction of IC50 in P-gp negative vs positive cells, absence of TQ): 6.50; SR (MES-SA_TQ / Dx5_TQ) (values in parentheses) (MES-SA/Dx5 cells; [21]): 1.66 |
| 178 to 179 | – | – | – | – | – | – | Oc1c(C(c2cccnc2)N2CCCCC2)ccc2cccnc12 (centres unmarked) [Compound 92, 7-((Piperidine-1-yl)(pyridin-3-yl)methyl)quinolin-8-ol] | 13.65 ± 0.12 | – | – | 13.5 | 8.58 ± 0.38 | – | 8.51 | – | 1.59 | – | – |
